From patent US3951995A, “Method for industrial production of N-substituted dipropylacetamides” (Laboratorios Made, S.A., priority 1973, dated 1976)

Tests used:
[1] = tested on: hypnotic effect of the pentobarbital; experiment: Potentiation of barbiturates (sodium pentobarbital hypnotic effect); format: in vivo, albino rats I.C.R. Swiss; details: for Asleep after 180 minutes (number of animals) / Awake after 180 minutes (number of animals): 30 min before sodium pentobarbital 60 mg/kg i.p., of 20; for potentiation of the hypnotic effect of the pentobarbital (in words): sodium pentobarbital 60 mg/kg i.p., I 180, II 35, III 18, Diazepam 3,6 mg/kg
Protocol: Albino rats I.C.R. Swiss weighing 25 ± 2 g have been used.
Lot (1): Sodium pentobarbital 60 mg/kg + I (180 mg/kg).
Lot (2): Sodium pentobarbital 60 mg/kg + II (35 mg/kg).
Lot (3): Sodium pentobarbital 60 mg/kg + III (18 mg/kg).
Lot (5): Sodium pentobarbital 60 mg/kg + distilled H2 O (control lot).
The number of animals awake after 180 minutes after the administration of the barbiturate are noted. The following results have been obtained according to the statistic test of Chi^2 : […]

[2] = Acute toxicity, lethal dose 50 (LD50), intraperitoneal; design: species or system albino rats I.C.R. Swiss; details: rat, in vivo, ip
Excerpt: The lethal dose 50 (LD50) has been determined on albino rats I.C.R. Swiss, of both sexes, weighing 24 ± 2 g.

[3] = tested on: convulsions and lethal effect of cardiazol; experiment: Anti-convulsant activity against cardiazol; format: in vivo, albino rats I.C.R. Swiss; details: for number of animals with convulsions / number of dead animals: after 30 minutes cardiazol 1 mg/rat, 10 rats per lot
Protocol: There have been employed 4 lots of 10 rats per lot, which received:
Lot (1): I 180 mg/kg and after 30 minutes cardiazol 1 mg/rat.
Lot (2): II 35 mg/kg and after 30 minutes cardiazol 1 mg/rat.
Lot (3): III 18 mg/kg and after 30 minutes cardiazol 1 mg/rat.

[4] = II 35 mg/kg, cardiazol 1 mg/rat

CCCC(CCC)C(=O)NCc1ccccn1 [Compound I, N-(2-picolyl)-dipropylacetamide]
Asleep after 180 minutes (number of animals) ([1]; I 180 mg/kg, control 1, p<0.001 (Chi^2)): 17
Awake after 180 minutes (number of animals) ([1]; I 180 mg/kg, control 19, p<0.001 (Chi^2)): 3
potentiation of the hypnotic effect of the pentobarbital (in words) [1]: potentiates clearly the hypnotic effect of the pentobarbital
LD50 [2]: > 1600 mg/kg
number of animals with convulsions ([3]; I 180 mg/kg, control 10): 9
number of dead animals ([3]; I 180 mg/kg, control 10): 7
protection of the lethal effect of the cardiazol ([3]; I 180 mg/kg, cardiazol 1 mg/rat): 30%

CCCC(CCC)C(=O)NCc1cccnc1 [Compound II, N-(3-picolyl)-dipropylacetamide]
Asleep after 180 minutes (number of animals) ([1]; II 35 mg/kg, control 1, p<0.001 (Chi^2)): 14
Awake after 180 minutes (number of animals) ([1]; II 35 mg/kg, control 19, p<0.001 (Chi^2)): 6
potentiation of the hypnotic effect of the pentobarbital (in words) [1]: potentiates clearly the hypnotic effect of the pentobarbital
LD50 [2]: 95 mg/kg
number of animals with convulsions ([3]; II 35 mg/kg, control 10): 0
number of dead animals ([3]; II 35 mg/kg, control 10): 0
protection of the convulsions [3, 4]: 100%
protection of the lethal effect of the cardiazol [3, 4]: 100%

CCCC(CCC)C(=O)NCc1ccncc1 [Compound III, N-(4-picolyl) - dipropylacetamide]
Asleep after 180 minutes (number of animals) ([1]; III 18 mg/kg, control 4, p<0.001 (Chi^2)): 19
Awake after 180 minutes (number of animals) ([1]; III 18 mg/kg, control 16, p<0.001 (Chi^2)): 1
potentiation of the hypnotic effect of the pentobarbital (in words) [1]: potentiates clearly the hypnotic effect of the pentobarbital
LD50 [2]: 264 mg/kg
number of dead animals ([3]; III 18 mg/kg, control 0): 0
number of animals with convulsions ([3]; III 18 mg/kg, control 5): 1
protection of the convulsion effect of cardiazol ([3]; III 18 mg/kg, cardiazol 1 mg/rat): 40%

CN1C(=O)CN=C(c2ccccc2)c2cc(Cl)ccc21 [Diazepam, reference compound]
Asleep after 180 minutes (number of animals) ([1]; Diazepam 3,6 mg/kg, control 4, p<0.02 (Chi^2)): 15
Awake after 180 minutes (number of animals) ([1]; Diazepam 3,6 mg/kg, control 16, p<0.02 (Chi^2)): 5
potentiation of the hypnotic effect of the pentobarbital (in words) [1]: potentiates clearly the hypnotic effect of pentobarbital, but not as much as the three compounds according to this invention
anti-convulsant / anti-epileptic activity (in words) ([3]; general statement): Results have been positive with cardiazol
